# From BindingDB's records for doi:10.7270/Q2P26WJQ (The Scripps Research Institute Molecular Screening Center, 2009)
# pIC50: −log10 of the molar value.
# Biological target: Transitional endoplasmic reticulum ATPase (Homo sapiens, UniProt P55072)
# Experiment: p97 ATPase inhibitors, dose response, biochemical (AID 1534)
# Transitional endoplasmic reticulum ATPase, sequence (P55072 whole entry): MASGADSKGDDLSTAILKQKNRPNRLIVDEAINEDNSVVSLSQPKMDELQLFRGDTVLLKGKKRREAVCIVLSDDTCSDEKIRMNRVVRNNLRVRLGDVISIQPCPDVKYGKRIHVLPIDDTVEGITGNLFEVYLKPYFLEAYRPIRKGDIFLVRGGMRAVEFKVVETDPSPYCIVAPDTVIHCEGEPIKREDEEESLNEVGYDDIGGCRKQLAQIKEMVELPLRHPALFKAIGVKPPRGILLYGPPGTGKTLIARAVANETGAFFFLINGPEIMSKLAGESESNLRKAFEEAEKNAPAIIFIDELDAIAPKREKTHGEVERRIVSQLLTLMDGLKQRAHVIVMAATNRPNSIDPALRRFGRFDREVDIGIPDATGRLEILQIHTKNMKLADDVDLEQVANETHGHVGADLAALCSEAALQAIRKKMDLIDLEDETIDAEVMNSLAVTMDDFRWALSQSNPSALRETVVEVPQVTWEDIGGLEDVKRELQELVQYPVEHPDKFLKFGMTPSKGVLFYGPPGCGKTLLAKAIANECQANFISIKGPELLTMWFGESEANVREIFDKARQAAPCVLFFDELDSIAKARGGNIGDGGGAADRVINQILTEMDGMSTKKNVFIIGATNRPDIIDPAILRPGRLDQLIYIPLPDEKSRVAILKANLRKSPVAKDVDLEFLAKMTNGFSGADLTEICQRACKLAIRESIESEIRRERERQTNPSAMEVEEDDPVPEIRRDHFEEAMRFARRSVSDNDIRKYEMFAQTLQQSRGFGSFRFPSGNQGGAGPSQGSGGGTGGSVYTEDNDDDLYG
row,SMILES,pIC50
1,"COc1ccc(CN=Nc2nnc(-c3ccccc3)c(=O)[nH]2)cc1 [4-methoxybenzaldehyde (5-oxo-6-phenyl-4,5-dihydro-1,2,4-triazin-3-yl)hydrazone]",< 4.30
2,"CN(C)[C@@H]1C(=O)C(C(N)=O)C(=O)[C@@]2(O)C(=O)C3C(=O)c4c(O)cccc4[C@@](C)(O)[C@H]3[C@H](O)[C@@H]12 (stereo partly drawn) [(2E,4S,4aR,5S,5aR,6S,12aS)-2-[azanyl(oxidanyl)methylidene]-4-(dimethylamino)-6-methyl-5,6,10,11,12a-pentakis(oxidanyl)-4,4a,5,5a-tetrahydrotetracene-1,3,12-trione]",< 4.30
3,"Cc1ccc(SCC(=O)C(C#N)c2nc3ccccc3s2)cc1 (configuration not stated) [(2Z)-2-(3H-1,3-benzothiazol-2-ylidene)-3-keto-4-(p-tolylthio)butyronitrile]",< 4.30
4,Cc1ccc(C)c(SCC(=O)OCC(=O)C(C#N)c2nc3ccccc3[nH]2)c1 (configuration not stated) [MLS000392255],< 4.30

# Second part, the molecule after the results:
row,pIC50,SMILES
1,< 4.30,"On1[o+]nc2c1CCc1nc(-c3ccccc3)[n-]c1-2 [3-oxidanidyl-7-phenyl-4,5-dihydro-1H-imidazo[4,5-g][2,1,3]benzoxadiazol-3-ium]"
2,< 4.30,"NS(=O)(=O)c1ccc(N=NCc2ccc(O)c(O)c2O)c([N+](=O)[O-])c1 [4-[[(E)-(2,3-dihydroxy-4-oxo-1-cyclohexa-2,5-dienylidene)methyl]hydrazo]-3-nitrobenzenesulfonamide]"
3,4.44,"Oc1ccc(CN=Nc2ccnc3cc(Cl)ccc23)cc1O [(4Z)-4-[[2-(7-chloroquinolin-4-yl)hydrazinyl]methylidene]-2-hydroxycyclohexa-2,5-dien-1-one]"
